# From PMC8448819, “The Arabidopsis MIK2 receptor elicits immunity by sensing a conserved signature from phytocytokines and microbes” (Nature Communications, 2021)
# Where “and” joins values, the source holds several entries; their conditions need not be identical. Equal entries are not always repeated. Entries after “also recorded” stand apart in the source; their conditions may differ. Where two headings read alike, the source gives them in different places. No end group written: not given here.
# Assays:
# Assay type in all cases: in vivo, Arabidopsis thaliana
# [1] = tested on: MYB51 promoter, pMYB51::GUS seedling roots; assay: Histochemical GUS staining, pMYB51::GUS; conditions: pMYB51::GUS seedlings, 1 µM, 3 h
# Description: Stained samples were fixed with a 3:1 ethanol:acetic acid solution overnight and cleared by lactic acid and photographed with the Olympus SZX10 stereoscopic microscope equipped with DP27 camera.
# [2] = tested on: Arabidopsis WT (Col-0) seedlings; conditions: in vivo
# [3] = tested on: mik2-1 and mik2-2 mutant seedlings; conditions: for Root length (Fig. 3e): individual values, one per line; for root growth inhibition in mik2: mik2-1 and mik2-2, 10-day-old seedlings, 1 µM peptide
# Arabidopsis WT seedlings = assay: ROS assay (luminol), WT seedlings; conditions: WT seedlings
# Protocol: ROS burst was determined by a luminol-based assay. […] Then, ddH2O was replaced by 200 µL of reaction solution containing 50 µM of luminol, and 10 µg/mL of horseradish peroxidase (Sigma-Aldrich) supplemented with or without 100 nM or 1 μM peptide. Luminescence was measured immediately after adding the solution with a luminometer (Glomax 20/20n, Promega) with a one-second interval for 15 min. The total values of ROS production were indicated as means of the relative light units (RLUs).
# p35S::Aequorin seedlings = conditions: Ca^2+ and ROS bursts, 100 nM
# [4] = tested on: MPK3, MPK4 and MPK6 phosphorylation, WT seedlings; assay: MAPK assay (α-pERK1/2 immunoblot), WT; conditions: Supplementary Fig. 3i
# Protocol: Ten-day-old seedlings grown vertically on ½MS plates were transferred to ddH2O overnight for recovery. Then, ddH2O was replaced by 100 nM peptides for the indicated time.
# [5] = tested on: Arabidopsis WT seedling roots; assay: Microscopy of root browning and root meristems, WT
# [6] = tested on: WRKY30, WRKY33 and CYP81F2 expression, WT seedlings; assay: RT-qPCR of defense genes, WT
# [7] = tested on: WRKY30, WRKY33 and CYP81F2 expression, mik2 seedlings; assay: RT-qPCR of defense genes, mik2 mutants
Sequence,MYB51 promoter activity in roots [1],root growth inhibition [2],Root length (Fig. 3e) ([3]; mik2-1),Root length (Fig. 3e) ([3]; mik2-2),other results
"PPRGPGGSGSGHGGGR [AtSCOOPL, SCOOPL from Acidovorax temperans]",inactivity,inactivity,–,–,–
"RGIVKPPIASFHSASPKDKGP [SCOOP4, synthesized SCOOP peptide corresponding to the SxS motif]",–,inhibited root growth to various degrees,22.155 and 26.016 and 23.373 and 23.51 and 24.985 and 25.73 and 26.362 and 20.719 and 23.733 and 21.154,26.627 and 26.926 and 29.205 and 26.909 and 23.654 and 24.824 and 23.191 and 25.56 and 22.857 and 22.903 and 27.736,–
"GAPIVFTPPSSSCGGSP [STMP4, STMP4 peptide, which has an amino acid deletion in the conserved SxS motif]",–,–,26.035 and 22.177 and 25.221 and 21.231 and 23.232 and 25.379 and 25.816 and 25.603 and 24.49,27.261 and 26.645 and 24.381 and 25.81 and 23.327 and 24.383 and 26.715 and 24.68 and 25.536 and 24.727,–
"PPRGSGGSSSGHGGGR [CuSCOOPL, SCOOPL from a strain of Curvibacter sp]",MYB51 promoter activation in roots,induced growth inhibition,–,–,root growth inhibition in mik2 [3]: blocked in mik2-1
"KIGASGSNSGRAPSC [SCOOP20, synthesized SCOOP peptide corresponding to the SxS motif]",–,inhibited root growth to various degrees,24.471 and 25.145 and 23.922 and 25.251 and 22.928 and 25.223 and 20.452 and 22.037 and 23.256 and 20.819,26.727 and 24.181 and 24.271 and 27.062 and 26.494 and 25.973 and 25.806 and 29.152 and 24.029 and 26.34 and 22.997,"ROS production, total luminescence (Fig. 2h) (Arabidopsis WT seedlings; repeat 1): 5262077; ROS production, total luminescence (Fig. 2h) (Arabidopsis WT seedlings; repeat 2): 3306520; ROS production, total luminescence (Fig. 2h) (Arabidopsis WT seedlings; repeat 3): 2873103"
"KIAVGGSDSVRAHSK [SCOOP23, synthesized SCOOP peptide corresponding to the SxS motif]",–,inhibited root growth to various degrees,23.435 and 26.217 and 25.329 and 21.432 and 22.769 and 26.981 and 22.432 and 24.659 and 23.767 and 23.209,23.086 and 28.297 and 24.517 and 23.273 and 27.734 and 25.385 and 23.518 and 22.015 and 26.958 and 26.866 and 23.718,"ROS production, total luminescence (Fig. 2h) (Arabidopsis WT seedlings; repeat 1): 2180098; ROS production, total luminescence (Fig. 2h) (Arabidopsis WT seedlings; repeat 2): 1251437; ROS production, total luminescence (Fig. 2h) (Arabidopsis WT seedlings; repeat 3): 1771537"
"MISEARPSKSKKGGGR [SCOOP6B, synthesized SCOOP peptide corresponding to the SxS motif]",–,inhibited root growth to various degrees,26.764 and 22.587 and 22.234 and 24.018 and 23.886 and 24.716 and 22.804 and 23.685 and 23.478 and 25.619,24.299 and 28.027 and 25.995 and 25.387 and 24.265 and 26.073 and 27.219 and 21.779 and 25.474 and 24.644,–
"RPPTPRVAVHSNSTKGKGP [SCOOP15B, synthesized SCOOP peptide corresponding to the SxS motif]",–,inhibited root growth to various degrees,22.469 and 26.152 and 25.889 and 25.356 and 27.954 and 26.487 and 24.47 and 23.738,21.779 and 26.908 and 23.024 and 23.497 and 28.191 and 26.08 and 24.094 and 28.257 and 26.467 and 23.539 and 26.537,–
"SNIDFEGSISGQAGGG [SCOOP8, synthesized SCOOP peptide corresponding to the SxS motif]",–,inhibited root growth to various degrees,25.253 and 25.162 and 23.049 and 22.582 and 26.011 and 22.381 and 28.631 and 26.512 and 24.502 and 27.853,23.975 and 28.387 and 29.648 and 23.838 and 24.549 and 26.123 and 23.426 and 24.732 and 24.595 and 29.804 and 26.398,–
"PPRGSGGPGGSGHGGGG [AaSCOOPL, SCOOPL from Acidovorax avenae]",inactivity,inactivity,–,–,–
"PPRGSGGSGSGHGGGR [VeSCOOPL, SCOOPL from Verminephrobacter eiseniae]",MYB51 promoter activation in roots,induced growth inhibition,–,–,root growth inhibition in mik2 [3]: blocked in mik2-1
"RSMAPPIFVPPSTSHKGQGP [SCOOP14, synthesized SCOOP peptide corresponding to the SxS motif]",induced the promoter activities of MYB51,inhibited root growth to various degrees; also recorded: potent in inhibiting root growth,24.089 and 21.232 and 24.336 and 25.505 and 25.175 and 27.845 and 26.169 and 23.827 and 21.884 and 25.844,25.38 and 24.419 and 26.016 and 27.911 and 26.615 and 21.291 and 24.947 and 21.905 and 24.43 and 24.226,"ROS production, SCOOP13 and 14 relative to other SCOOPs, and Ca^2+ bursts (p35S::Aequorin seedlings): relatively weak activities for Ca^2+ and ROS bursts; MAPK activation in shoots and roots [4]: triggered the MAPK activation in both shoots and roots; root browning ([5]; WT seedlings, prolonged treatment): led to brown roots; root meristem distortion ([5]; WT, 5-day-old seedlings, 1 µM, 48 h, PI staining): distorted root meristems; ROS production, total luminescence (Fig. 2h) (Arabidopsis WT seedlings; repeat 1): 719851; ROS production, total luminescence (Fig. 2h) (Arabidopsis WT seedlings; repeat 2): 1351126; ROS production, total luminescence (Fig. 2h) (Arabidopsis WT seedlings; repeat 3): 841586"
MGSGASGPVRSSQSSQAGGR [SCOOP12],–,–,–,–,"WRKY30, WRKY33 and CYP81F2 expression ([6]; 1 µM, 1 h, RT-qPCR): upregulation; CYP81F2 expression (Fig. 3i) ([6]; repeat 1): 29.17; CYP81F2 expression (Fig. 3i) ([6]; repeat 2): 38.18; CYP81F2 expression (Fig. 3i) ([6]; repeat 3): 74.97; CYP81F2 expression (Fig. 3i) ([6]; repeat 4): 101.98; CYP81F2 expression (Fig. 3i) ([7]; mik2-1, repeat 1): 5.42; CYP81F2 expression (Fig. 3i) ([7]; mik2-1, repeat 2): 5.95; CYP81F2 expression (Fig. 3i) ([7]; mik2-1, repeat 3): 2.79; CYP81F2 expression (Fig. 3i) ([7]; mik2-1, repeat 4): 3.39; CYP81F2 expression (Fig. 3i) ([7]; mik2-2, repeat 1): 6.08; CYP81F2 expression (Fig. 3i) ([7]; mik2-2, repeat 2): 9.84; CYP81F2 expression (Fig. 3i) ([7]; mik2-2, repeat 3): 9.95; CYP81F2 expression (Fig. 3i) ([7]; mik2-2, repeat 4): 12.98; WRKY30, WRKY33 and CYP81F2 expression ([7]; mik2 mutants, 1 µM, 1 h, RT-qPCR): abolished in mik2 mutants"
